Experimental data as given in PubChem BioAssay (NCI).
Several values for one entry are separate records, joined by “and”; a condition that tells them apart may be missing. Identical values can stand only once.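 Briefly, cells in 96-well plates were exposed to five compound concentrations for 48 h, and endpoints were estimated by linear interpolation. GI50 is the concentration that inhibits growth by half. At the TGI there is no net growth.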

How the values were obtained:
Experiment in all cases: inhibition of tumour cell growth, NCI panel, 48 h
HCC-2998 colon = test system: HCC-2998 colon
HL-60(TB) leukemia = test system: HL-60(TB) leukemia
BT-549 breast = test system: BT-549 breast
HS 578T breast = test system: HS 578T breast
CAKI-1 renal = test system: CAKI-1 renal
SR leukemia = test system: SR leukemia
EKVX NSCLC = test system: EKVX NSCLC
U251 CNS = test system: U251 CNS
HOP-92 NSCLC = test system: HOP-92 NSCLC
OVCAR-4 ovarian = test system: OVCAR-4 ovarian

| SMILES | GI50 (HCC-2998 colon) | TGI (HCC-2998 colon) | GI50 (HL-60(TB) leukemia) | TGI (HL-60(TB) leukemia) | GI50 (BT-549 breast) | TGI (BT-549 breast) | GI50 (HS 578T breast) | TGI (HS 578T breast) | GI50 (CAKI-1 renal) | TGI (CAKI-1 renal) | GI50 (SR leukemia) | TGI (SR leukemia) | GI50 (EKVX NSCLC) | TGI (EKVX NSCLC) | GI50 (U251 CNS) | TGI (U251 CNS) | GI50 (HOP-92 NSCLC) | TGI (HOP-92 NSCLC) | GI50 (OVCAR-4 ovarian) | TGI (OVCAR-4 ovarian) |
| --- | --- | --- | --- | --- | --- | --- | --- | --- | --- | --- | --- | --- | --- | --- | --- | --- | --- | --- | --- | --- |
| COc1ccc(-c2oc(=O)ccc2-c2cc(OC)c(OC)c(OC)c2)cc1F | 33.4 µM | > 100 µM | 3.52 µM | 26.8 µM | 19.7 µM | 88.4 µM | 23.9 µM | > 100 µM | 9.64 µM | > 100 µM | 1.57 µM | 9.44 µM | 46.4 µM | > 100 µM | 14.5 µM | > 100 µM | 5.69 µM | 65 µM | 36.5 µM | > 100 µM |
| COc1ccc2[nH]cc(-c3nc(-c4c[nH]c5ncccc45)cs3)c2c1 | 67.3 µM | > 100 µM | 1.81 µM | > 100 µM | 5.35 µM | > 100 µM | 4.17 µM | > 100 µM | 2.05 µM | > 100 µM | 2.91 µM | > 100 µM | 5.79 µM | > 100 µM | 3.83 µM | > 100 µM | 2.13 µM | 8.12 µM | 6.89 µM | > 100 µM |
| Cc1ccc(-c2nc3ccc([N+](=O)[O-])cc3[nH]2)cc1 |  | > 100 µM |  | > 100 µM |  | > 100 µM |  | > 100 µM |  | > 100 µM |  | > 100 µM |  | > 100 µM |  | > 100 µM |  | > 100 µM |  | > 100 µM |
| N#Cc1c(-c2ccc(F)cc2)c(-c2ccc(F)cc2)nn(CCO)c1=O |  | 28.4 µM |  | 0.292 µM |  | 39.9 µM |  | 12.1 µM |  | > 100 µM |  | > 100 µM |  | > 76.6 µM |  | > 100 µM |  | > 100 µM |  | > 100 µM |
| O=C(c1ccc(Cl)cc1)c1cnc(Nc2ccccc2Cl)s1 |  | > 87.8 µM |  | > 100 µM |  | 51.2 µM |  | 68.8 µM |  | 40 µM |  | > 100 µM |  | 50.5 µM |  | > 80.9 µM |  | 49.5 µM |  | 98.2 µM |
| C=CC(=O)N1CCC(C2CCNc3c(C(N)=O)c(-c4ccc(Oc5ccccc5)cc4)nn32)CC1 (stereo not given) | 14.8 µM | 28.6 µM | 14.6 µM | 40.3 µM | 12.9 µM | 52.4 µM | 20.6 µM | 78.4 µM | 4.51 µM | 71 µM | 10.4 µM | 46.8 µM | 3.49 µM | 42 µM | 19.7 µM | 96.3 µM | 2.47 µM | 15.7 µM | 6.25 µM | 95.4 µM |
| Cc1[nH]c2ccccc2c1-c1cc(-c2cc(-c3c(C)[nH]c4ccccc34)on2)no1 |  | > 100 µM |  | > 100 µM |  | > 100 µM |  | 90.6 µM |  | > 100 µM |  | 96.7 µM |  | > 100 µM |  | > 100 µM |  | > 100 µM |  | > 100 µM |
| CC(=O)c1cc2c(o1)C(=O)c1ccccc1C2=O | 0.46 µM and 0.261 µM | 0.993 µM and 0.689 µM | 0.241 µM and 0.271 µM | 0.641 µM and 0.773 µM | 0.164 µM and 0.161 µM | 0.312 µM and 0.304 µM | 0.292 µM and 0.295 µM | 0.771 µM and 0.806 µM | 1.45 µM and 0.823 µM | 2.93 µM and 2.24 µM | 0.299 µM and 0.308 µM | 5.36 µM | 1.19 µM and 1.55 µM | 2.96 µM and 3.41 µM | 0.197 µM and 0.256 µM | 0.378 µM and 0.682 µM | 2.18 µM and 1.82 µM | 4.24 µM and 3.47 µM | 0.255 µM and 0.377 µM | 0.767 µM and 1.48 µM |
